Measured values taken from ChEMBL document CHEMBL1122941, “Design, synthesis, and pharmacological activities of 2-substituted 4-phenylquinolines as potential antidepressant drugs” (J Med Chem, 1985).

What was measured:
[1] = Lethal dose was evaluated against reserpine induced hypothermia in mice by intraperitoneal administration; format: toxicity, organism-based; conditions: mouse, in vivo, ip
Mus musculus = assay: Effective dose was evaluated for its antagonism to reserpine induced hypothermia in mice by intraperitoneal administration; format: functional; conditions: ip
[2] = Therapeutic index as the ratio of LD50 to that of ED50 values.

Row | Structure (SMILES) | LD50 [1] | ED50 (Mus musculus) | therapeutic index (LD50/ED50) [2]
1 | CN(C)CCOc1cc(-c2ccccc2)c2ccccc2n1.Cl | 202 mg/kg | 18.5 mg/kg | 10.9
2 | CN(C)CCSc1cc(-c2ccccc2)c2ccccc2n1.Cl | 198 mg/kg | 42.1 mg/kg | 4.7
3 | CN(C)CCN(C)c1cc(-c2ccccc2)c2ccccc2n1.Cl | 98 mg/kg | 27 mg/kg | 3.63
4 | CN(C)CCCNc1cc(-c2ccccc2)c2ccccc2n1.Cl | 100 mg/kg | > 50 mg/kg | –
5 | c1ccc2nc(N3CCNCC3)ccc2c1 [QUIPAZINE] | 135 mg/kg | 35.4 mg/kg | –
6 | Cl.c1ccc(-c2cc(N3CCNCC3)nc3ccccc23)cc1 | 152 mg/kg | 12 mg/kg | 12.7
7 | CN(C)CCCOc1cc(-c2ccccc2)c2ccccc2n1.Cl | 200 mg/kg | > 50 mg/kg | –
8 | O=c1n(CCCN2CCN(c3cccc(Cl)c3)CC2)nc2ccccn12 [TRAZODONE] | – | > 50 mg/kg | –
9 | CCN(CC)Cc1cc(-c2ccccc2)c2ccccc2n1.Cl | 163 mg/kg | > 50 mg/kg | 7.76
10 | Cl.ClCCCN1CCN(c2cc(-c3ccccc3)c3ccccc3n2)CC1 | 385 mg/kg | 18 mg/kg | 21.4
11 | CN(C)CCCSc1cc(-c2ccccc2)c2ccccc2n1.Cl | 189 mg/kg | > 50 mg/kg | –
12 | CN(C)CCCN1c2ccccc2CCc2ccccc21 [IMIPRAMINE] | – | 21 mg/kg | –
13 | CN(C)CCCN(C)c1cc(-c2ccccc2)c2ccccc2n1.Cl | 110 mg/kg | > 50 mg/kg | –
14 | CN(C)CCNc1cc(-c2ccccc2)c2ccccc2n1.Cl | 102 mg/kg | 26 mg/kg | 3.92
15 | Cl.O=c1n(CCCN2CCN(c3cc(-c4ccccc4)c4ccccc4n3)CC2)nc2ccccn12 | 390 mg/kg | 40.2 mg/kg | 9.7
